# Experiments:
# [1] = system: PRAS40(T246); assay: Phospho-PRAS40(T246) in PC3 cell lysates, Luminex multiplex; format: cell-based, human; conditions: PC3, 1 hour exposure; read-out: p-PRAS40 (T246) IC50
# Excerpt: (§1) The direct substrate for TORC1 was 4E-BP 1(T46) and indirect downstream substrate was S6RP(S235/S236). The direct substrate for TORC2 was Akt(S473) and indirect downstream substrates measured were GSK3β(S9) and PRAS40(T246). Additionally, the phosphorylation status of Akt(T308), a phosphorylation site for PDK1 was monitored.
# The multiplex Luminex assay format differs from conventional enzyme-linked immunosorbent assay (ELISA) in that the multiplex capture antibody is attached to a polystyrene bead whereas the ELISA capture antibody is attached to the microplate well. The use of the suspension bead-based technology enables the multiplexing capabilities of the Luminex assays. The xMAP® technology uses 5.6 micron polystyrene microspheres, which are internally dyed with red and infrared fluorophores of differing intensities. Each bead is given a unique number, or bead region, allowing differentiation of one bead from another. Beads covalently bound to different specific antibodies can be mixed in the same assay, utilizing a 96-well microplate format. At the completion of the sandwich immunoassay, beads can be read, using the Luminex 100™ or Luminex 200 detection system, in single-file by dual lasers for classification and quantification of each analyte. […]
# [2] = system: Akt(S473); assay: Phospho-Akt(S473) in PC3 cell lysates, MSD; format: cell-based, human; conditions: PC3, 1 hour exposure; read-out: p-Akt (S473) IC50
# Excerpt: as §1
# MSD® biomarker detection assays provide a rapid and convenient method for measuring the total and phosphorylated levels of protein targets within a single small volume sample. These assays are available in both single-plex and multiplex formats. In a single-plex assay, an antibody for a specific protein target is coated on one electrode (or spot) per well. […] MSD Read Buffer that provides the appropriate chemical environment for ECL is added and the plate is read using an MSD SECTOR™ Imager. […] The instrument measures intensity of the emitted light to afford a quantitative measure of the amount of phosphorylated Akt or S6RP present in the sample. […]
# The assay plate was incubated with 150 μL of MSD Blocker A Solution for 1 hour with shaking at room temperature. […] Then 150 μL of 1×MSD Read Buffer T was added to each well. The plate was read on the SECTOR Imager plate reader. The Excel data was transferred to Activity Base and IC50 values were calculated.
# All data was analyzed using XLfit from IDBS. […]
compound,measurement,setting,value
"CO[C@H]1CC[C@H](N2C(=O)CNc3ncc(-c4ccc(C(C)(C)O)nc4)nc32)CC1 [Compound 1, 7-(6-(2-hydroxypropan-2-yl)pyridin-3-yl)-1-((1r,4r)-4-methoxycyclohexyl)-3,4-dihydropyrazino-[2,3-b]pyrazin-2(1H)-one]",IC50,[1],140 nM
same,IC50,[2],10 nM

# — patent US20140113904A1, “TREATMENT OF CANCER WITH TOR KINASE INHIBITORS” (SIGNAL PHARMACEUTICALS, LLC, priority 2012, published 2014)
